Molecular target: CFTR (Homo sapiens, UniProt P13569)
Experiment: standard Ussing Chamber Assay for CFTR potentiator activity
Assay type: cell-based

CFTR, sequence (P13569 whole entry): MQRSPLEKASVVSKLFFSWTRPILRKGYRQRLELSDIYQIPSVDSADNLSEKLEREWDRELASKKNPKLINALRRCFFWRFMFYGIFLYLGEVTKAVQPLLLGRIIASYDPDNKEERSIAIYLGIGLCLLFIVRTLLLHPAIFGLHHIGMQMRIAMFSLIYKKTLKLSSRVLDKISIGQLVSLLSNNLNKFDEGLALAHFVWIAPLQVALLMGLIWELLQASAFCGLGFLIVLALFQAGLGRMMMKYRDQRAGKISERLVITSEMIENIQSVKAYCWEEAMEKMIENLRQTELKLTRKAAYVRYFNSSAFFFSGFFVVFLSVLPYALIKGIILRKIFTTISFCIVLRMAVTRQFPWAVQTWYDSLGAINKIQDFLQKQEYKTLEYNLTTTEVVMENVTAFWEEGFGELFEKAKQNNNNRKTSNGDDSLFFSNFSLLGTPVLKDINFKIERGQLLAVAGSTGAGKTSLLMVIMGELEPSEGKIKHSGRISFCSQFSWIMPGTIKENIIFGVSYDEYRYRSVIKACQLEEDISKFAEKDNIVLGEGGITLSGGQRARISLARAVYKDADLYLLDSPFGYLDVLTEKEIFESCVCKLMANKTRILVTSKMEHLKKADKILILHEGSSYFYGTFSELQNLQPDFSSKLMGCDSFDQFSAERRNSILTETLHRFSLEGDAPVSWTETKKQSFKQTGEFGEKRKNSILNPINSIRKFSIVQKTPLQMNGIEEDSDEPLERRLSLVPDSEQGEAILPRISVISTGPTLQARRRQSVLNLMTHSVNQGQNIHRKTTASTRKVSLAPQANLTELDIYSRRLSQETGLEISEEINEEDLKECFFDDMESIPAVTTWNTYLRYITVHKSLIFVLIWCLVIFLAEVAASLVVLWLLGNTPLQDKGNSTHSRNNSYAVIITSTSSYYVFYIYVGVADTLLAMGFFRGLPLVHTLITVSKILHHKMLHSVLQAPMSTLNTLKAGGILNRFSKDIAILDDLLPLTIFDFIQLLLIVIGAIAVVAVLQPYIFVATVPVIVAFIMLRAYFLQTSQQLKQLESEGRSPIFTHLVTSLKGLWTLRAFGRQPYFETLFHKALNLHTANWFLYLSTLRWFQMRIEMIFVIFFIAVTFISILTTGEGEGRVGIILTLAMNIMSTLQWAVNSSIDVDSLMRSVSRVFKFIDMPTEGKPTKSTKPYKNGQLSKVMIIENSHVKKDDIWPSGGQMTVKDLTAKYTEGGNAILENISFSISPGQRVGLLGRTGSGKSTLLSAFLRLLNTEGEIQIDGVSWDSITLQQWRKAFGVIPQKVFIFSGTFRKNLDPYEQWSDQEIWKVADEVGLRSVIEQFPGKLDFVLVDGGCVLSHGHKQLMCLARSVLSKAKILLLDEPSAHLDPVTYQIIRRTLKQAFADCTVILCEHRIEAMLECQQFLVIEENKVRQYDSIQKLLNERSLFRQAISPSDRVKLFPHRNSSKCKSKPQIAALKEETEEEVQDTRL

CFTR modulatory activity: confirmed
SMILES: C[C@@H]1CCCCC[C@](O)(C(F)(F)F)C2=NN=C(O2)c2nc(c(C(F)(F)F)cc2N)O1 [(6R,12R)-17-amino-12-methyl-6,15-bis(trifluoromethyl)-13,19-dioxa-3,4,18-triazatricyclo[12.3.1.12,5]nonadeca-1(18),2,4,14,16-pentaen-6-ol]

Source: patent US20230373935A1, “MODULATORS OF CYSTIC FIBROSIS TRANSMEMBRANE CONDUCTANCE REGULATOR” (VERTEX PHARMACEUTICALS INCORPORATED, priority 2020, published 2023)
